# Compound: NCC(=O)Nc1ccc(-n2nc(C(F)(F)F)cc2-c2ccc3c(ccc4ccccc43)c2)cc1 + O=C(CCCCCCC(=O)Nc1ccccc1)NO [Vorinostat] (partner 1 µM)
# Test: relative viability (nuclei count vs DMSO), 5 days (fraction); higher = more cells survive
# Outline: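 Lung cancer cell lines in 1536-well plates got either a single drug or a fixed anchor-drug dose together with five library-drug doses (not always all listed) in √10 steps, by pin tool, on the day after seeding. Nuclei were counted after 5 days, and relative viability is the treated-to-vehicle ratio of nuclei counts. Values are medians of duplicate plates.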
cell line,measurement,setting,value
UMC-11,relative viability,first compound 0.02 µM,0.337
same,relative viability,first compound 0.06325 µM,0.434
same,relative viability,first compound 0.2 µM,0.511
same,relative viability,first compound 0.6325 µM,0.355
same,relative viability,first compound 2 µM,0.383

# Source: the supplement of paper PMC10307832
